From US10722514B2 (FLX Bio, Inc., priority 2017, dated 2020)
pIC50: −log10 of the molar value. Where a name gives a salt, the structure may show the parent alone. Read-outs that look alike come from different tables or passages of the source.

Target: T1, recombinant full-length USP7 (Homo sapiens, UniProt Q93009)
T1 construct: A 25 μl reaction volume containing recombinant full-length USP7 (62 pM)
Test: USP7-mediated ubiquitin-rhodamine cleavage assay
Assay type: biochemical
Settings: recombinant full-length USP7 62 pM, ubiquitin-rhodamine 100 nM, 1 hour reaction at room temperature
Method in brief: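 After compound and enzyme (62 pM) sat together 30 min at RT, 100 nM fluorogenic ubiquitin-rhodamine substrate was added for 1 h protected from light. Acetic acid quenched the reaction prior to the fluorescence read.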

[1] = 30-minute incubation with compound, read-out: Potency: USP7 IC50
[2] = 30-minute pre-incubation, read-out: Potency (USP7 IC50)

T1 sequence (Q93009 whole entry): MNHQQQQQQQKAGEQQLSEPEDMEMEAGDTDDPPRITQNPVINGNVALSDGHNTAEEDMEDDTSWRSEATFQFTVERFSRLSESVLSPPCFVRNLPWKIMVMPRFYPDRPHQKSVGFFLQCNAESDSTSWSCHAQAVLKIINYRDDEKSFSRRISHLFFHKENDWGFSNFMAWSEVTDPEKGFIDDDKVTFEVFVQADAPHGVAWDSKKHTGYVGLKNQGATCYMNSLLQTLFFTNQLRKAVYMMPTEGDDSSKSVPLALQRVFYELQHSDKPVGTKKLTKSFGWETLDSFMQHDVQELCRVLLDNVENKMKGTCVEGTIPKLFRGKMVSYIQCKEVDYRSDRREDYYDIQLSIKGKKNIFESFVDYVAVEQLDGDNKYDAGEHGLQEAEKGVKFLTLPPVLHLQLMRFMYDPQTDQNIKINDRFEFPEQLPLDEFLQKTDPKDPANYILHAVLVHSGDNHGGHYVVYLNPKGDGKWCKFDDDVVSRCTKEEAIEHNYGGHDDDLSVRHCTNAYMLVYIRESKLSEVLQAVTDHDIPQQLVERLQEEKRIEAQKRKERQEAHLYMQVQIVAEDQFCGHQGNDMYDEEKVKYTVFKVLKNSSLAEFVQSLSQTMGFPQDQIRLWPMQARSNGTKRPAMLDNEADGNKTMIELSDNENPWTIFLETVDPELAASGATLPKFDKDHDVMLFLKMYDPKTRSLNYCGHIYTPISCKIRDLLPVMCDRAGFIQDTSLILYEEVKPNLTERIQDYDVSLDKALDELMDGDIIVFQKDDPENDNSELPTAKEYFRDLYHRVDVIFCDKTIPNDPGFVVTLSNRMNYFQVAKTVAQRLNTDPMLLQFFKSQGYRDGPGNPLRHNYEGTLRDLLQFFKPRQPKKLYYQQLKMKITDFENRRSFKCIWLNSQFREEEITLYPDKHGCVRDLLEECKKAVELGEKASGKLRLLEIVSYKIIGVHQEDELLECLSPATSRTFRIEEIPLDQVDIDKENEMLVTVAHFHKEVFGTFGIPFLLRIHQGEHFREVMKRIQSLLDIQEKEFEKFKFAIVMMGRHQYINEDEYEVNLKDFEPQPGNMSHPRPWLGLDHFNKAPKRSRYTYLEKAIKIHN

| SMILES | pIC50 [1] | pIC50 [2] | other results |
| --- | --- | --- | --- |
| Cc1cc(Cl)cc(-c2ccnc3cc(CN4C(=O)OC(C)(C)C4=O)sc23)c1O[C@H]1CCCNC1 [Example 311, 3-[[7-[5-chloro-3-methyl-2-[[(3S)-3-piperidyl]oxy]phenyl]thieno[3,2-b]pyridin-2-yl]methyl]-5,5-dimethyl-oxazolidine-2,4-dione; 2,2,2-trifluoroacetic acid] | > 6.00 |  |  |
| Cc1cc(Cl)cc(-c2ccnc3cc(Cn4c(=O)[nH]cc(C)c4=O)sc23)c1O[C@H]1CCCNC1 [Example 479, 3-[[7-[5-chloro-3-methyl-2-[[(3S)-3-piperidyl]oxy]phenyl]thieno[3,2-b]pyridin-2-yl]methyl]-5-methyl-1H-pyrimidine-2,4-dione] |  | > 6.00 |  |
| Cc1cc(Cl)cc(-c2ccnc3cc(CN4C(=O)C5C(C4=O)C5(C)C)sc23)c1O[C@@H]1CCNC[C@@H]1F (stereo partly drawn) [Example 391, 3-[[7-[5-chloro-2-[[(3S,4R)-3-fluoro-4-piperidyl]oxy]-3-methyl-phenyl]thieno[3,2-b]pyridin-2-yl]methyl]-6,6-dimethyl-3-azabicyclo[3.1.0]hexane-2,4-dione; 2,2,2-trifluoroacetic acid] | > 6.00 |  |  |
| Cc1cc(Cl)cc(-c2ccnc3cc(CN4C(=O)CC(C)(C)C4=O)sc23)c1O[C@H]1CCCNC1 [Example 313, 1-[[7-[5-chloro-3-methyl-2-[[(3S)-3-piperidyl]oxy]phenyl]thieno[3,2-b]pyridin-2-yl]methyl]-3,3-dimethyl-pyrrolidine-2,5-dione; 2,2,2-trifluoroacetic acid] | > 6.00 |  |  |
| CCC(O)c1cc2nccc(-c3cccc(C)c3OC3CCNCC3)c2s1 (centres unmarked) [Example 172, 1-(7-(3-Methyl-2-(piperidin-4-yloxy)phenyl)thieno[3,2-b]pyridin-2-yl)propan-1-ol] | 4.52 to 5.00 |  |  |
| Cc1cc(Cl)cc(-c2ncnc3cc(Cn4c(=O)ccn(C)c4=O)sc23)c1O[C@H]1CCNC[C@@H]1F [Example 560, 3-[[4-[5-chloro-2-[[(3S,4S)-3-fluoro-4-piperidyl]oxy]-3-methyl-phenyl]thieno[3,2-d]pyrimidin-6-yl]methyl]-1-methyl-pyrimidine-2,4-dione] |  | > 6.00 |  |
| Cc1cc(Cl)cc(-c2ccnc3cc(Cn4c(=O)ccn(C)c4=O)sc23)c1OCC1(C(F)F)CNC1 [Example 533, 3-[[7-[5-chloro-2-[[3-(difluoromethyl)azetidin-3-yl]methoxy]-3-methyl-phenyl]thieno[3,2-b]pyridin-2-yl]methyl]-1-methyl-pyrimidine-2,4-dione] |  | > 6.00 |  |
| Cc1cc(Cl)cc(-c2ccnc3cc(Cn4c(=O)ccn(CC(F)(F)F)c4=O)sc23)c1O[C@H]1CNC[C@H]1C [Example 626, 3-[[7-[5-chloro-3-methyl-2-[(3R,4R)-4-methylpyrrolidin-3-yl]oxy-phenyl]thieno[3,2-b]pyridin-2-yl]methyl]-1-(2,2,2-trifluoroethyl)pyrimidine-2,4-dione] |  | > 6.00 |  |
| COC[C@@H]1C[C@H](Oc2c(C)cc(Cl)cc2-c2ccnc3cc(Cn4c(=O)ccn(CC(F)(F)F)c4=O)sc23)CN1 [Example 647, 3-[[7-[5-chloro-2-[(3S,5S)-5-(methoxymethyl)pyrrolidin-3-yl]oxy-3-methyl-phenyl]thieno[3,2-b]pyridin-2-yl]methyl]-1-(2,2,2-trifluoroethyl)pyrimidine-2,4-dione] |  | > 6.00 |  |
| Cn1nc2c(c1C1Cc3cc(Cl)cc(-c4ccnc5cc(CN6C(=O)C7C(C6=O)C7(C)C)sc45)c3O1)CNCC2 [Example 387, 3-[[7-[(2R)-5-chloro-2-(2-methyl-4,5,6,7-tetrahydropyraozlo[4,3-c]pyridin-3-yl)-2,3-dihydrobenzofuran-7-yl]thieno[3,2-b]pyridin-2-yl]methyl]-6,6-dimethyl-3-azabicyclo[3.1.0]hexane-2,4-dione dihydrochloride] | > 6.00 |  |  |
| Cc1cc(Cl)cc(-c2ccnc3cc(CN4C(=O)CCC4=O)sc23)c1O[C@H]1CCCCNC1 [Example 268, (S)-1-((7-(2-(azepan-3-yloxy)-5-chloro-3-methylphenyl)thieno[3,2-b]pyridin-2-yl)methyl)pyrrolidine-2,5-dione] | > 6.00 |  |  |
| O=C1CNC(=O)N1Cc1cc2ncnc(-c3cccc(OC(F)(F)F)c3)c2s1 [Example 403, 3-[[4-[3-(trifluoromethoxy)phenyl]thieno[3,2-d]pyrimidin-6-yl]methyl]imidazolidine-2,4-dione] | 5.00 to 6.00 |  |  |
| Cc1cc(Cl)cc(-c2ccnc3cc(Cn4c(=O)ccn(CC(F)(F)F)c4=O)sc23)c1OC1CC2(COCCN2)C1 (centres unmarked) [Example 697, 3-[[7-[5-chloro-3-methyl-2-(8-oxa-5-azaspiro[3.5]nonan-2-yloxy)phenyl]thieno[3,2-b]pyridin-2-yl]methyl]-1-(2,2,2-trifluoroethyl)pyrimidine-2,4-dione] |  |  | pIC50 (30-minute incubation, read-out: Potency (USP7 IC50)): > 6.00 |
| Cc1cc(Cl)cc(-c2ncnc3cc(Cn4c(=O)ccn(CC(F)(F)F)c4=O)sc23)c1O[C@H]1CNC[C@@H]1C [Example 578, 3-[[4-[5-chloro-3-methyl-2-[(3R,4S)-4-methylpyrrolidin-3-yl]oxy-phenyl]thieno[3,2-d]pyrimidin-6-yl]methyl]-1-(2,2,2-trifluoroethyl)pyrimidine-2,4-dione] |  | > 6.00 |  |
| Cc1cc(Cl)cc(-c2ncnc3cc(CN4C(=O)CCC4=O)sc23)c1O[C@H]1CCCNC1 [Example 230, (S)-1-((4-(5-Chloro-3-methyl-2-(piperidin-3-yloxy)phenyl)thieno[3,2-d]pyrimidin-6-yl)methyl)pyrrolidine-2,5-dione] | > 6.00 |  |  |
| Cc1cc(Cl)cc(-c2ccnc3cc(Cn4c(=O)ccn(CC(F)(F)F)c4=O)sc23)c1O[C@@H]1CNC[C@H]1C [Example 628, 3-[[7-[5-chloro-3-methyl-2-[(3S,4R)-4-methylpyrrolidin-3-yl]oxy-phenyl]thieno[3,2-b]pyridin-2-yl]methyl]-1-(2,2,2-trifluoroethyl)pyrimidine-2,4-dione] |  | > 6.00 |  |
| Cc1cc(Cl)cc(-c2ccnc3cc(Cn4c(=O)ccn(CC(F)(F)F)c4=O)sc23)c1OCCN [Example 576, 3-[[7-[2-(2-aminoethoxy)-5-chloro-3-methyl-phenyl]thhieno[3,2-b]pyridin-2-yl]methyl]-1-(2,2,2-trifluoroethyl)pyrimidine-2,4-dione; 2,2,2-trifluoroacetic acid] |  | > 6.00 |  |
| Cc1cc(Cl)cc(-c2ccnc3cc(Cn4c(=O)cc[nH]c4=O)sc23)c1O[C@@H]1CNC[C@@H]1F [Example 153, 3-((7-(5-Chloro-2-(((3R,4S)-4-fluoropyrrolidin-3-yl)oxy)-3-methylphenyl)thieno[3,2-b]pyridin-2-yl)methyl)pyrimidine-2,4(1H,3H)-dione] | > 6.00 |  |  |
| Cc1cc(Cl)cc(-c2ccnc3cc(CN4C(=O)CCC4=O)sc23)c1OC1CNCCOC1 (centres unmarked) [Example 271, 1-((7-(2-((1,4-Oxazepan-6-yl)oxy)-5-chloro-3-methylphenyl)thieno[3,2-b]pyridin-2-yl)methyl)pyrrolidine-2,5-dione] | 5.00 to 6.00 |  |  |
| Cc1cc(Cl)cc(-c2ccnc3cc(Cn4c(=O)ccn(C)c4=O)sc23)c1OC1CC[C@H](C)NC1 (stereo partly drawn) [Example 523, 3-[[7-[5-chloro-3-methyl-2-[[(6S)-6-methyl-3-piperidyl]oxy]phenyl]thieno[3,2-b]pyridin-2-yl]methyl]-1-methyl-pyrimidine-2,4-dione; 2,2,2-trifluoroacetic acid] |  | > 6.00 |  |
